From US7456293B2, “Substituted carboxylic acid derivatives for the treatment of diabetes and lipid disorders, their preparation and use” (SK Holding Co., Ltd, priority 2005, dated 2008)
Marks after values point to notes of the source that are not given here.

Legend:
db/db mice [1] = assay: Efficacy test for blood glucose and plasma lipid lowering (db/db mice); type: in vivo; conditions: male db/db mice, oral; for Insulin % max reduction d7: day 7, vs vehicle; for BG % max reduction d14 / Fatty Acid % max reduction d14 / TG % max reduction d14 / Insulin % max reduction d14: day 14, vs vehicle
Excerpt: Mice used in this study were standard model of type II diabetes developed by Jackson Laboratories (Bar Harbor, Me.). Mice (male, 8-wk-old db/db) were housed six per cage in hanging wire bottom cages with standard laboratory conditions. The mice had free access to normal chow (Purina Rodent Chow) and water. At the age of 8-10 weeks, the mice were bled from the tail for glucose matching among the groups (n=6 per group). To test the PPAR-γ effect of the compounds of Examples 1, 2, 3, 4 and 6, mice were then dosed orally with vehicle (CMC) or with two different concentrations (3 or 10 mg/kg/d) of each compound for 7-14 days. Each compound of Examples 1, 2, 3, 4 and 6 was dosed as suspension in 0.5% CMC+0.2% Tween 80 in sterile water. Fresh suspension was prepared for 8 days dosing and kept in a refrigerator. The suspension was administered orally by gavage daily in the morning. The control group received vehicle (dose 10 mL/kg). Blood glucose concentrations (in fed state) were monitored at basal and 3 h post dose on day 14 either by putting a drop of blood from tails on a glucose strip for analysis by a glucometer or using a 10 μL plasma sample in a YSI (Yellow Spring Instruments, OH) analyzer. […] The results are expressed in Table 2 as % maximal reduction that is achieved relative to vehicle treated control group. Animals having more than 300 mg/dL of blood glucose were used for testing. Statistical significance (* P<0.05; ** P<0.01) is given versus the appropriate sample in vehicle treated animals.

[2] = test system: human ApoA1 transgenic mice; assay: Changes in plasma ApoA1, HDL cholesterol and TG levels (human ApoA1 transgenic mice); type: in vivo; conditions: for ApoA1 % increase / HDL Cholesterol % increase / TG % decrease: oral, 8 days
Description: Homozygous human ApoA1 transgenic mouse strains (C57BL/6-TgN1Rub) were purchased from Jackson Laboratories (Bar Harbor, Me.). The mice were grouped by six and housed in hanging wire bottom cages with standard laboratory conditions. The mice had free access to normal chow (Purina Rodent Chow) and water. The grouped mice were then dosed orally with vehicle (CMC) or with different concentrations of the compound of Example 1 (3, 10 or 30 mg/kg/d) for 8 days. Compounds were dosed as suspension in 0.5% CMC+0.2% Tween 80 in sterile water. Fresh suspension was prepared for 8 days dosing and kept in a refrigerator. The suspension was administered orally by gavage daily in the morning. The control group received vehicle (dose 10 mL/kg). Blood samples were collected by cardiac puncture, centrifuged and analyzed for ApoA1, HDL cholesterol, and triglyceride.

hPPAR-α = biological target: T1, hPPAR-α (Homo sapiens, UniProt Q07869); assay: In vitro hPPAR-α transactivation (GAL4 fusion, SPRAT cells, luciferase); type: cell-based
T1 construct: expressed in transfected cells
T1 sequence (Q07869 239-466 limits assumed): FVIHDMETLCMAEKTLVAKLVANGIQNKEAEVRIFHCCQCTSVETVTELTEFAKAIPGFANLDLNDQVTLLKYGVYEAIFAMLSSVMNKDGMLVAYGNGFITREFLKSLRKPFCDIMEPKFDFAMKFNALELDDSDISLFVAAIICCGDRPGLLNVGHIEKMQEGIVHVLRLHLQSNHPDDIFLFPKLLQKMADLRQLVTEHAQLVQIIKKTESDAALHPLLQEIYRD

db/db mice [3] = assay: Oral glucose tolerance test (OGTT) in db/db mice; type: in vivo
Description: OGTT was performed in db/db mice after dosing of either 3 or 10 mg/kg of the compound of Example 1 for 9 days. The animals were dosed with 10% glucose in water in a volume of 10 mL/kg. Blood samples were taken at 0, 30, 60 and 120 min post dose.

hPPAR-δ = biological target: T2, hPPAR-δ (Homo sapiens, UniProt Q03181); assay: In vitro hPPAR-δ transactivation (GAL4 fusion, SPRAT cells, luciferase); type: cell-based; conditions: for EC50: 6 hours, read-out: PPAR-δ EC50; for PPAR-δ % Max: relative to TTA = 100
T2 construct: expressed in transfected cells
T2 sequence (Q03181 211-439 limits assumed): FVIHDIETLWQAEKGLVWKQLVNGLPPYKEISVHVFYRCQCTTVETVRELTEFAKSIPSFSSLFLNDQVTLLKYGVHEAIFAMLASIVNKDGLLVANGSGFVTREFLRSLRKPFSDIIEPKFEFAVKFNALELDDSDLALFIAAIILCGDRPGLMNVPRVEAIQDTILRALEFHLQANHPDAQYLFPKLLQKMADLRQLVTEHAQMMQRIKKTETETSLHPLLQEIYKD

3T3-L1 adipocytes = assay: Insulin-stimulated glucose uptake (2-deoxy-D-glucose) in differentiated 3T3-L1 adipocytes; type: cell-based
Excerpt: Adipocyte differentiation was then induced using standard protocol. […] The maintenance medium was changed every 3 days until the cells were utilized for experimentation. […] In each instance, the medium was changed twice a day. […]

[4] = test system: high cholesterol-fed rats; assay: Changes in plasma lipid parameters (high cholesterol-fed rats); type: in vivo; conditions: 10 mg/kg
Description: Blood was collected and analyzed for non-fasted total cholesterol and free fatty acid levels. The results are calculated as the percent reduction relative to vehicle control.

hPPAR-γ = biological target: T3, hPPAR-γ (Homo sapiens, UniProt P37231); assay: In vitro hPPAR-γ transactivation (GAL4 fusion, SPRAT cells, luciferase); type: cell-based
T3 construct: expressed in transfected cells
T3 sequence (P37231 238-503 limits assumed): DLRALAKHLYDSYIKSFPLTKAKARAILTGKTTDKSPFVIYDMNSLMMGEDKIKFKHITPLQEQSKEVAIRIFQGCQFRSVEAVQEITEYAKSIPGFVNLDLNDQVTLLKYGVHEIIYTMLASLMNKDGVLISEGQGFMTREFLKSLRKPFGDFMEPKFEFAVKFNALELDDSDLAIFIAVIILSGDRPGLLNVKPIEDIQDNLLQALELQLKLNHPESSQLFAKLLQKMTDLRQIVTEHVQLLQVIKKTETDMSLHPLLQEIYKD

[5] = oral, 4 days, vs vehicle control

CCOC(Cc1ccc(OCCn2c(C(F)(F)F)nc3ccccc32)cc1)C(=O)O (racemic) [Example 1, 2-ethoxy-3-(4-{2-[2-(trifluoromethyl)-1H-benzimidazol-1-yl]ethoxy}phenyl)propanoic acid]
Insulin % max reduction d7 (db/db mice [1]; 3 mg/kg): 85** (d7) %
BG % max reduction d14 (db/db mice [1]; 3 mg/kg): 69** %
Fatty Acid % max reduction d14 (db/db mice [1]; 3 mg/kg): 47** %
TG % max reduction d14 (db/db mice [1]; 3 mg/kg): 52** %
Insulin % max reduction d7 (db/db mice [1]; 10 mg/kg): 87** (d7) %
BG % max reduction d14 (db/db mice [1]; 10 mg/kg): 73** %
Fatty Acid % max reduction d14 (db/db mice [1]; 10 mg/kg): 72** %
TG % max reduction d14 (db/db mice [1]; 10 mg/kg): 55** %
ApoA1 % increase ([2]; 3 mg/kg): 52%
HDL Cholesterol % increase ([2]; 3 mg/kg): 47* %
TG % decrease ([2]; 3 mg/kg): 52* %
ApoA1 % increase ([2]; 10 mg/kg): 137%
HDL Cholesterol % increase ([2]; 10 mg/kg): 73** %
TG % decrease ([2]; 10 mg/kg): 56** %
ApoA1 % increase ([2]; 30 mg/kg): 186%
HDL Cholesterol % increase ([2]; 30 mg/kg): 51** %
TG % decrease ([2]; 30 mg/kg): 67** %
HDL-cholesterol (in words) ([2]; through increase in human ApoA1 levels): greatly increased HDL-cholesterol
EC50 (hPPAR-α; 6 hours, read-out: PPAR-α EC50): 17.2 µM
PPAR-α % Max (hPPAR-α; relative to Reference (α) = 100): 44%
AUC for blood glucose, reduction vs vehicle control (db/db mice [3]; 3 mg/kg for 9 days): 49%
AUC for blood glucose, reduction vs vehicle control (db/db mice [3]; 10 mg/kg for 9 days): 48%
EC50 (hPPAR-δ): 50 µM
PPAR-δ % Max (hPPAR-δ): 68%
glucose transport activity (3T3-L1 adipocytes; 1 μM compound in the presence of 100 nM insulin, 48 h, FIG. 1): significantly increased
glucose transport (3T3-L1 adipocytes; separate treatment: 1 μM compound alone or 100 nM insulin alone, 48 h, 3T3-L1 adipocytes): increase in glucose transport
plasma total cholesterol and free fatty acid levels (in words) [4]: significantly reduced
Free Fatty Acid % reduction [4, 5]: 68** %
Total Cholesterol % reduction [4, 5]: 69** %
EC50 (hPPAR-γ; 6 hours, read-out: PPAR-γ EC50): 0.04 µM
PPAR-γ % Max (hPPAR-γ; relative to Rosiglitazone = 100): 62%

CCOC(Cc1ccc(OCCn2c(C(F)(F)C(F)(F)F)nc3ccccc32)cc1)C(=O)O (stereo not drawn) [Example 2, 2-ethoxy-3-(4-{2-[2-(pentafluoroethyl)-1H-benzimidazol-1-yl]ethoxy}phenyl)propanoic acid]
BG % max reduction d14 (db/db mice [1]; 3 mg/kg): 57** %
Fatty Acid % max reduction d14 (db/db mice [1]; 3 mg/kg): 45** %
Insulin % max reduction d14 (db/db mice [1]; 3 mg/kg): 59** (d14) %
TG % max reduction d14 (db/db mice [1]; 3 mg/kg): 50** %
BG % max reduction d14 (db/db mice [1]; 10 mg/kg): 75** %
Fatty Acid % max reduction d14 (db/db mice [1]; 10 mg/kg): 71** %
Insulin % max reduction d14 (db/db mice [1]; 10 mg/kg): 75** (d14) %
TG % max reduction d14 (db/db mice [1]; 10 mg/kg): 70** %

CCOC(Cc1ccc(OCCn2c(C(F)(F)F)nc3cc(C(F)(F)F)ccc32)cc1)C(=O)O (stereo not drawn) [Example 3, 3-(4-{2-[2,5-bis(trifluoromethyl)-1H-benzimidazol-1-yl]ethoxy}phenyl)-2-ethoxypropanoic acid]
BG % max reduction d14 (db/db mice [1]; 3 mg/kg): 77** %
Fatty Acid % max reduction d14 (db/db mice [1]; 3 mg/kg): 49** %
Insulin % max reduction d14 (db/db mice [1]; 3 mg/kg): 76** (d14) %
TG % max reduction d14 (db/db mice [1]; 3 mg/kg): 61** %
BG % max reduction d14 (db/db mice [1]; 10 mg/kg): 77** %
Fatty Acid % max reduction d14 (db/db mice [1]; 10 mg/kg): 76** %
Insulin % max reduction d14 (db/db mice [1]; 10 mg/kg): 79** (d14) %
TG % max reduction d14 (db/db mice [1]; 10 mg/kg): 77** %

CCOC(Cc1ccc(OCCn2c(C(F)(F)F)nc3cc(F)ccc32)cc1)C(=O)O (stereo not drawn) [Example 4, 3-(4-{2-[5-fluoro-2-(trifluoromethyl)-1H-benzimidazol-1-yl]ethoxy}phenyl)-2-ethoxypropanoic acid]
BG % max reduction d14 (db/db mice [1]; 3 mg/kg): 68** %
Fatty Acid % max reduction d14 (db/db mice [1]; 3 mg/kg): 25** %
Insulin % max reduction d14 (db/db mice [1]; 3 mg/kg): 79** (d14) %
TG % max reduction d14 (db/db mice [1]; 3 mg/kg): 64** %
BG % max reduction d14 (db/db mice [1]; 10 mg/kg): 73** %
Fatty Acid % max reduction d14 (db/db mice [1]; 10 mg/kg): 27** %
Insulin % max reduction d14 (db/db mice [1]; 10 mg/kg): 79** (d14) %
TG % max reduction d14 (db/db mice [1]; 10 mg/kg): 58** %

CCO[C@@H](Cc1ccc(OCCn2c(C(F)(F)F)nc3ccccc32)cc1)C(=O)O [Example 6, (2S)-3-{4-[2-(2-trifluoromethyl-benzoimidazol-1-yl)-ethoxy]-phenyl}-2-ethoxy-propionic acid]
Insulin % max reduction d7 (db/db mice [1]; 3 mg/kg): 87** (d7) %
BG % max reduction d14 (db/db mice [1]; 3 mg/kg): 53** %
Fatty Acid % max reduction d14 (db/db mice [1]; 3 mg/kg): 54** %
TG % max reduction d14 (db/db mice [1]; 3 mg/kg): 62** %
Insulin % max reduction d7 (db/db mice [1]; 10 mg/kg): 86** (d7) %
BG % max reduction d14 (db/db mice [1]; 10 mg/kg): 73** %
Fatty Acid % max reduction d14 (db/db mice [1]; 10 mg/kg): 60** %
TG % max reduction d14 (db/db mice [1]; 10 mg/kg): 66** %
insulin-stimulated glucose uptake, enantio-dependency (3T3-L1 adipocytes; each enantiomer vs racemate, FIG. 2): statistically significant difference (P<0.01) over racemate

CCCCCCCCCCCCCCSCC(=O)O [TTA (δ), reference compound]
EC50 (hPPAR-δ): 38 µM
PPAR-δ % Max (hPPAR-δ): 100%
